Experimental data as given in US11845724B2, “USP30 inhibitors and uses thereof” (Vincere Biosciences, Inc., priority 2019, dated 2023).
Where a name gives a salt, the structure may show the parent alone. Read-outs that look alike come from different tables or passages of the source.

Molecular target: recombinant USP30 (amino acids 57-517 of the human sequence) (Homo sapiens (Human), UniProt Q70CQ3)
Assay: In vitro USP30 biochemical assay (Ubiquitin-Rhodamine)
[1] = read-out: USP30 IC50 μM (avg), Ubiquitin-Rhodamine substrate 25 nM, 1.5 nM recombinant USP30
[2] = USP30 IC50 μM (avg), Ubiquitin-Rhodamine substrate 25 nM, 1.5 nM recombinant USP30

Chain of recombinant USP30 (amino acids 57-517 of the human sequence) (Q70CQ3 57-517): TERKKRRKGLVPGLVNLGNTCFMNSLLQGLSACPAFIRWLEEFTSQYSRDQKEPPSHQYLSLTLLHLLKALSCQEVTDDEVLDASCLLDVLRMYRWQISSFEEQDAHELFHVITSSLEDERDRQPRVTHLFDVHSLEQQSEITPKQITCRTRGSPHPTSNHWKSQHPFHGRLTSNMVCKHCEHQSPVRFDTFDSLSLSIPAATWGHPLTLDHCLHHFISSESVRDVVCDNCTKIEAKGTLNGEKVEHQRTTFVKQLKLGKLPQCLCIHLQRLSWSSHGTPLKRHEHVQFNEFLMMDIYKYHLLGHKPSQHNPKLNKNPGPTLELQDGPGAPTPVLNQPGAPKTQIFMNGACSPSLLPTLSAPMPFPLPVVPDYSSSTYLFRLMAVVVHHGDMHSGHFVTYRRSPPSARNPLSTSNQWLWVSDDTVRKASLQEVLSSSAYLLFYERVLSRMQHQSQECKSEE
Description: In vitro biochemical assay to establish the potency of compounds for USP30 inhibition: a 384-well plate assay using a fluorophore tagged substrate of USP30 was used for in vitro screening of compounds. Each compound was tested at 10 different concentrations (0.5 to 10,000 nM) in duplicate wells. Compounds were pre-incubated at 25° C. for 30 min in an assay buffer consisting of 20 mM Tris/HCl, pH8.0, 1 mM GSH, 0.01% Triton X-100, 0.03% BGG and 1.5 nM recombinant USP30 (amino acids 57-517 of the human sequence with a C-terminal 6-His tag). Following the pre-incubation, Ubiquitin-Rhodamine substrate dissolved in the assay buffer was added at the final concentration of 25 nM to each well and plates were incubated at 25° C. for an additional 75 minutes. The reaction was stopped by adding 10 mM citric acid and fluorescence was read using excitation wavelength 485 nm, emission of 535 nm. Data were analyzed using Graph Pad Prism software with a four-parameter (floating slope) fit to log concentration data to determine IC50s.

How did the IC50 [1] turn out when `CC(C)(C)NS(=O)(=O)c1ccc(NC(=O)C2Cc3ccncc3N2C(=O)c2ccc(F)cc2)cc1` (centres unmarked) [Compound I-56, N-(4-(N-tert-butylsulfamoyl)phenyl)-1-(4-fluorobenzoyl)-2,3-dihydro-1H-pyrrolo[2,3-c]pyridine-2-carboxamide] was run?
The IC50 was > 10 µM.

`CC(C)(C)NS(=O)(=O)c1ccc(NC(=O)[C@H](Cc2ccccc2)NC(=O)C2COC2)cc1` [Compound I-86, (S)-N-(1-(4-(N-tert-butylsulfamoyl)phenylamino)-1-oxo-3-phenylpropan-2-yl)oxetane-3-carboxamide] was tested. Which IC50 [1] did it give?
The IC50 was > 10 µM.

With `O=C(NC1(C(=O)Nc2ccc(S(=O)(=O)NC3CC3)cc2)Cc2ccccc2C1)c1ccc(F)cc1` [Compound I-103, N-(4-(N-cyclopropylsulfamoyl)phenyl)-2-(4-fluorobenzamido)-2,3-dihydro-1H-indene-2-carboxamide] as the molecule, how does the IC50 [1] read?
The IC50 was > 10 µM.

How did the IC50 [2] turn out when `CN(C)CCNS(=O)(=O)c1ccc(NC(=O)[C@H](Cc2ccccc2)NC(=O)c2ccc(F)cc2)cn1` [Compound I-109, (S)-N-(1-(6-(N-(2-(dimethylamino)ethyl)sulfamoyl)pyridin-3-ylamino)-1-oxo-3-phenylpropan-2-yl)-4-fluorobenzamide formate] was run?
The IC50 was 1 to 10 µM.

Which IC50 [2] does the source give for `O=C(N[C@@H](Cc1ccccc1)C(=O)Nc1ccc(S(=O)(=O)NCCO)nc1)c1ccc(F)cc1` [Compound I-110, (S)-4-fluoro-N-(1-(6-(N-(2-hydroxyethyl)sulfamoyl)pyridin-3-ylamino)-1-oxo-3-phenylpropan-2-yl)benzamide] here?
The IC50 was 0.05 to 1 µM.

With `CN(C)S(=O)(=O)c1cccc2c(NC(=O)[C@H](Cc3ccccc3)NC(=O)C3CCCCC3)cccc12` [Compound I-127, (S)-N-(1-(5-(N,N-dimethylsulfamoyl)naphthalen-1-ylamino)-1-oxo-3-phenylpropan-2-yl)cyclohexanecarboxamide] as the molecule, how does the IC50 [1] read?
Its IC50 is > 10 µM.

How did the IC50 [1] turn out when `CN(C)S(=O)(=O)c1cccc2c(NC(=O)[C@H](Cc3ccccc3)NC(=O)c3ccc(F)cc3)cccc12` [Compound I-128, (S)-N-(1-(5-(N,N-dimethylsulfamoyl)naphthalen-1-ylamino)-1-oxo-3-phenylpropan-2-yl)-4-fluorobenzamide] was run?
Its IC50 is > 10 µM.

Which IC50 [2] does the source give for `CCNS(=O)(=O)c1ccc(NC(=O)[C@H](Cc2ccccc2)NC(=O)c2ccc(F)cc2)c(OC)c1` [Compound I-143, (S)-N-(1-(4-(N-ethylsulfamoyl)-2-methoxyphenylamino)-1-oxo-3-phenylpropan-2-yl)-4-fluorobenzamide] here?
Its IC50 is 1 to 10 µM.

How did the IC50 [2] turn out when `COc1cc(S(=O)(=O)NC23CC(C2)C3)ccc1NC(=O)[C@H](Cc1ccccc1)NC(=O)c1ccc(F)cc1` [Compound I-145, (S)-N-(1-(4-(N-bicyclo[1.1.1]pentan-1-ylsulfamoyl)-2-methoxyphenylamino)-1-oxo-3-phenylpropan-2-yl)-4-fluorobenzamide] was run?
The IC50 was 1 to 10 µM.

How did the IC50 [2] turn out when `COc1cc(NC(=O)[C@H](Cc2ccccc2)NC(=O)c2ccc(F)cc2)ccc1S(=O)(=O)NC(C)(C)CN1CCOCC1` [Compound I-153, (S)-4-fluoro-N-(1-(3-methoxy-4-(N-(2-methyl-1-morpholinopropan-2-yl)sulfamoyl)phenylamino)-1-oxo-3-phenylpropan-2-yl)benzamide] was run?
Its IC50 is 0.05 to 1 µM.

How did the IC50 [2] turn out when `COc1cc(NC(=O)[C@H](Cc2ccccc2)NC(=O)c2ccc(F)cc2)ccc1S(=O)(=O)NC(C)(C)CCN1CCOCC1` [Compound I-154, (S)-4-fluoro-N-(1-(3-methoxy-4-(N-(2-methyl-4-morpholinobutan-2-yl)sulfamoyl)phenylamino)-1-oxo-3-phenylpropan-2-yl)benzamide] was run?
The IC50 was 0.05 to 1 µM.

For `COCC(C)(C)NS(=O)(=O)c1ccc(NC(=O)[C@H](Cc2ccccc2)N(C)C(=O)c2ccc(F)cc2)cc1OC` [Compound I-159, (S)-4-fluoro-N-(1-(3-methoxy-4-(N-(1-methoxy-2-methylpropan-2-yl)sulfamoyl)phenylamino)-1-oxo-3-phenylpropan-2-yl)-N-methylbenzamide], which IC50 [2] is on record?
The IC50 was 1 to 10 µM.

With `COCC(C)(C)NS(=O)(=O)c1ccc(NC(=O)[C@H](Cc2ccccc2)N(C)C(=O)c2ccc(F)cc2)cc1` [Compound I-160, (S)-4-fluoro-N-(1-(4-(N-(1-methoxy-2-methylpropan-2-yl)sulfamoyl)phenylamino)-1-oxo-3-phenylpropan-2-yl)-N-methylbenzamide] as the molecule, how does the IC50 [2] read?
The IC50 was 1 to 10 µM.

How did the IC50 [1] turn out when `CC(C)(CCN1CCOCC1)NS(=O)(=O)c1ccc(NC(=O)[C@H](Cc2ccccc2)NC(=O)c2ccc(F)cc2)cc1` [Compound I-163, (S)-4-fluoro-N-(1-(4-(N-(2-methyl-4-morpholinobutan-2-yl)sulfamoyl)phenylamino)-1-oxo-3-phenylpropan-2-yl)benzamide] was run?
Its IC50 is < 0.05 µM.

For `CC(C)(C)NS(=O)(=O)c1ccc(NC(=O)[C@H](Cc2ccccc2)NS(=O)(=O)c2ccc(F)cc2)cc1` [Compound I-165, (S)-N-(4-(N-tert-butylsulfamoyl)phenyl)-2-(4-fluorophenylsulfonamido)-3-phenylpropanamide], which IC50 [1] is on record?
Its IC50 is > 10 µM.

`N#Cc1cc(NC(=O)[C@H](Cc2ccccc2)NC(=O)c2ccc(F)cc2)ccc1S(=O)(=O)NC12CC(C1)C2` [Compound I-166, (S)-N-(1-(4-(N-bicyclo[1.1.1]pentan-1-ylsulfamoyl)-3-cyanophenylamino)-1-oxo-3-phenylpropan-2-yl)-4-fluorobenzamide] was tested. Which IC50 [2] did it give?
The IC50 was 0.05 to 1 µM.

For `CC(C)(C)NS(=O)(=O)c1ccc(NC(=O)[C@H](Cc2ccccc2)NC(=O)c2ccc(F)cc2)cc1C#N` [Compound I-167, (S)-N-(1-(4-(N-tert-butylsulfamoyl)-3-cyanophenylamino)-1-oxo-3-phenylpropan-2-yl)-4-fluorobenzamide], which IC50 [1] is on record?
The IC50 was < 0.05 µM.

With `CC(C)(C)NS(=O)(=O)c1ccc(NC(=O)[C@H](Cc2ccccc2)NC(=O)c2ccc(F)cc2)cc1Cl` [Compound I-168, (S)-N-(1-(4-(N-tert-butylsulfamoyl)-3-chlorophenylamino)-1-oxo-3-phenylpropan-2-yl)-4-fluorobenzamide] as the molecule, how does the IC50 [1] read?
The IC50 was < 0.05 µM.

How did the IC50 [2] turn out when `O=C(N[C@@H](Cc1ccccc1)C(=O)Nc1ccc(S(=O)(=O)NC23CC(C2)C3)c(Cl)c1)c1ccc(F)cc1` [Compound I-169, (S)-N-(1-(4-(N-bicyclo[1.1.1]pentan-1-ylsulfamoyl)-3-chlorophenylamino)-1-oxo-3-phenylpropan-2-yl)-4-fluorobenzamide] was run?
The IC50 was 0.05 to 1 µM.

How did the IC50 [2] turn out when `O=C(N[C@@H](Cc1ccccc1)C(=O)Nc1ccc(S(=O)(=O)NC2COC2)c(Cl)c1)c1ccc(F)cc1` [Compound I-170, (S)-N-(1-(3-chloro-4-(N-oxetan-3-ylsulfamoyl)phenylamino)-1-oxo-3-phenylpropan-2-yl)-4-fluorobenzamide] was run?
Its IC50 is 0.05 to 1 µM.

Which IC50 [2] does the source give for `COCCC(C)(C)NS(=O)(=O)c1ccc(NC(=O)[C@H](Cc2ccccc2)NC(=O)c2ccc(F)cc2)cc1Cl` [Compound I-171, (S)-N-(1-(3-chloro-4-(N-(4-methoxy-2-methylbutan-2-yl)sulfamoyl)phenylamino)-1-oxo-3-phenylpropan-2-yl)-4-fluorobenzamide] here?
The IC50 was 0.05 to 1 µM.

With `CC(C)(C#N)NS(=O)(=O)c1ccc(NC(=O)[C@H](Cc2ccccc2)NC(=O)c2ccc(F)cc2)cc1` [Compound I-172, (S)-N-(1-(4-(N-(2-cyanopropan-2-yl)sulfamoyl)phenylamino)-1-oxo-3-phenylpropan-2-yl)-4-fluorobenzamide] as the molecule, how does the IC50 [2] read?
Its IC50 is 0.05 to 1 µM.

For `C#CC(C)(C)NS(=O)(=O)c1ccc(NC(=O)[C@H](Cc2ccccc2)NC(=O)c2ccc(F)cc2)cc1` [Compound I-173, (S)-4-fluoro-N-(1-(4-(N-(2-methylbut-3-yn-2-yl)sulfamoyl)phenylamino)-1-oxo-3-phenylpropan-2-yl)benzamide], which IC50 [1] is on record?
Its IC50 is < 0.05 µM.
